Assay results taken from ChEMBL document CHEMBL5154656, “High-Throughput Screening Platform in Postnatal Heart Cells and Chemical Probe Toolbox to Assess Cardiomyocyte Proliferation” (J Med Chem, 2022).
The source made the active and inactive calls. No cut-off for these calls is given here.

How the values were obtained:
[1] = Cytotoxicity against mouse Cardiomyocytes assessed as toxicity at > 1 uM; type: cell-based; conditions: cardiac muscle cell
Cardiac muscle cell [2] = assay: Cytotoxicity against rat Cardiomyocytes assessed as toxicity at > 1 uM; type: cell-based
Cardiac muscle cell [3] = assay: Pro-proliferative activity in Wistar rat cardiac cells from P6 late postnatal developmental time points assessed as effect on cell number by measuring alphaAct/Ki67 cardiomyocyte nuclei at 0.33 to 10 uM by DAPI analysis; type: functional, cell-based; conditions: dose 0.33-10 µM
Cardiac muscle cell [4] = assay: Pro-proliferative activity in Wistar rat cardiac cells from P1 early postnatal developmental time points assessed as effect on cell number by measuring alphaAct/Ki67 cardiomyocyte nuclei at 0.33 to 10 uM by DAPI analysis; type: functional, cell-based; conditions: dose 0.33-10 µM
[5] = target: Mitogen-activated protein kinase 14 (Homo sapiens) (UniProt Q16539); assay: Inhibition of P38alphaMAPK (unknown origin) relative to control; conditions: concentration not given here
Sequence of Mitogen-activated protein kinase 14 (Homo sapiens) (Q16539 whole entry): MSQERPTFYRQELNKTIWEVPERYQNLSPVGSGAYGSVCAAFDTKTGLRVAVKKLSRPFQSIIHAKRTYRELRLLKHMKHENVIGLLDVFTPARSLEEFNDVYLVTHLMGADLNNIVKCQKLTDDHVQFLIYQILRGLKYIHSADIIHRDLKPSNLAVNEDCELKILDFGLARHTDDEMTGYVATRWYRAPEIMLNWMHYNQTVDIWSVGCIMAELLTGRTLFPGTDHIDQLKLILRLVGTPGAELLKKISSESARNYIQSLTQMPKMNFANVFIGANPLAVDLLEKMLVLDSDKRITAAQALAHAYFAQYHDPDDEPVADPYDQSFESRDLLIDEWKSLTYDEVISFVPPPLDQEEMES

[6] = target: Mitogen-activated protein kinase 11 (Homo sapiens) (UniProt Q15759); assay: Inhibition of P38betaMAPK (unknown origin) relative to control; conditions: concentration not given here
Sequence of Mitogen-activated protein kinase 11 (Homo sapiens) (Q15759 whole entry): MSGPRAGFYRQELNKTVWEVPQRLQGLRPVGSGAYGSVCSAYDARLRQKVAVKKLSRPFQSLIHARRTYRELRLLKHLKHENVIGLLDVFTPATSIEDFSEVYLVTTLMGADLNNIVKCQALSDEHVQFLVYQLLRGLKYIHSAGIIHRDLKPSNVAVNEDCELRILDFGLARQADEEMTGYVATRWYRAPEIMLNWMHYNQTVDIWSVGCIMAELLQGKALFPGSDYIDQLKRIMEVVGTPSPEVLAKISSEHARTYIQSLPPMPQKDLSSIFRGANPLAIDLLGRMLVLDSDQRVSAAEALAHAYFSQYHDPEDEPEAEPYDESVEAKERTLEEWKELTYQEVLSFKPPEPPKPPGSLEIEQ

Cardiac muscle cell [7] = assay: Induction of cell proliferation in postnatal day 5 rat cardiac cells assessed as increase in nuclear to cytoplasmic YAP ratio for 4 to 24 hrs by immunostaining analysis; type: functional, cell-based; conditions: time 4-24 hrs
Cardiac muscle cell [8] = assay: Induction of cell proliferation in postnatal day 6 rat cardiac cells assessed as increasing in number of cardiomyocytes; type: functional, cell-based; conditions: dose 0.1-10 µM, DDE = dose-dependent effect
Cardiac muscle cell [9] = assay: Induction of cell proliferation in postnatal day 5 rat cardiac cells assessed as increase in total CM nuclei number; type: functional, cell-based
Cardiac Muscle Cell [10] = assay: Induction of cell proliferation in postnatal day 6 mouse cardiac cells assessed as increase in total CM nuclei number; type: functional, cell-based
Cardiac Muscle Cell [11] = assay: Induction of cell proliferation in postnatal day 6 transgenic mouse cardiac cells assessed as increase in percentage of eGFP-anillin-positive cardiomyocytes; type: functional, cell-based
Cardiac Muscle Cell [12] = assay: Induction of cell proliferation in postnatal day 1 transgenic mouse cardiac cells assessed as increase in bi-nucleation; type: functional, cell-based
Cardiac Muscle Cell [13] = assay: Induction of cell proliferation in postnatal day 1 transgenic mouse cardiac cells assessed as increase in percentage of eGFP-anillin-positive cardiomyocytes; type: functional, cell-based
Cardiac Muscle Cell [14] = assay: Induction of cell proliferation in postnatal day 6 CD1 mouse heart assessed as increase in number of cardiomyocyte by measuring mCherry+ cardiomyocyte nuclei at 0.001 to 1 uM; type: functional, cell-based; conditions: dose 0.001-1 µM, DDE = dose-dependent effect
Cardiac Muscle Cell [15] = assay: Induction of cell proliferation in postnatal day 1 transgenic mouse cardiac cells assessed as increase in total CM nuclei number; type: functional, cell-based
[16] = Cytotoxicity against mouse Cardiomyocytes assessed as toxicity at 0.33 to 10 uM; type: cell-based; conditions: cardiac muscle cell, dose 0.33-10 µM
Cardiac muscle cell [17] = assay: Cytotoxicity against rat Cardiomyocytes assessed as toxicity at 0.33 to 10 uM; type: cell-based; conditions: dose 0.33-10 µM
Cardiac Muscle Cell [18] = assay: Induction of cell proliferation in postnatal day 6 mouse cardiac cells assessed as stimulation in pro-prolierative responses; type: functional, cell-based; conditions: dose 0.33-10 µM, DDE = dose-dependent effect
Cardiac muscle cell [19] = assay: Induction of cell proliferation in postnatal day 6 rat cardiac cells assessed as increase in CM numbers at 0.33 to 5 uM; type: functional, cell-based; conditions: dose 0.33-5 µM
Cardiac Muscle Cell [20] = assay: Induction of cell proliferation in postnatal day 6 CD1 mouse cardiac cells assessed as enhancement in cardiomyocyte numbers by measuring alphaAct+; type: functional, cell-based
Cardiac muscle cell [21] = assay: Induction of cell proliferation in postnatal day 6 Wistar rat cardiac cells assessed as enhancement cardiomyocyte numbers by measuring alphaAct+; type: functional, cell-based
Cardiac Muscle Cell [22] = assay: Induction of cell proliferation in postnatal day 1 CD1 mouse cardiac cells assessed as enhancement in cardiomyocyte numbers by measuring alphaAct+; type: functional, cell-based
Cardiac muscle cell [23] = assay: Induction of cell proliferation in postnatal day 1 Wistar rat cardiac cells assessed as enhancement cardiomyocyte numbers by measuring alphaAct+; type: functional, cell-based
Cardiac muscle cell [24] = assay: Induction of cell proliferation in postnatal day 6 rat cardiac cells assessed as stimulation in pro-prolierative responses; type: functional, cell-based; conditions: dose 0.1-10 µM, DDE = dose-dependent effect
Cardiac Muscle Cell [25] = assay: Induction of cell proliferation in postnatal day 1 mouse cardiac cells assessed as increase in CM numbers at 0.33 to 5 uM; type: functional, cell-based; conditions: dose 0.33-5 µM
Cardiac muscle cell [26] = assay: Induction of cell proliferation in postnatal day 1 Wistar rat cardiac cells assessed as increase in cardiomyocyte numbers by measuring alphaAct+ at 0.33 to 5 uM; type: functional, cell-based; conditions: dose 0.33-5 µM
Cardiac Muscle Cell [27] = assay: Induction of cell proliferation in postnatal day 6 mouse cardiac cells assessed as increase in CM numbers at 0.33 to 5 uM; type: functional, cell-based; conditions: dose 0.33-5 µM

## CCn1c(=O)[nH]c2ccccc21
[1]
  Activity: Toxic
Cardiac muscle cell [2]
  Activity: Toxic

## O=C(NCC(O)CO)c1ccc2c(c1)C(=O)c1ccc(Nc3ccc(F)cc3F)cc1CC2 (stereo not drawn)
Cardiac muscle cell [3]
  Activity: Active
Cardiac muscle cell [4]
  Activity: Active

## O=C1c2ccc(Nc3ccc(F)cc3F)cc2CCc2ccc(OC[C@H](O)CO)cc21
Cardiac muscle cell [3]
  Activity: Active
[5]
  inhibition: 99.8%
Cardiac muscle cell [4]
  Activity: Active
[6]
  inhibition: 99.8%

## Cc1cnc(-c2cnc(NCCNc3ccc(C#N)cn3)nc2-c2ccc(Cl)cc2Cl)[nH]1
Cardiac muscle cell [7]
  Activity: Active
Cardiac muscle cell [8]
  Activity: Dde

## CN1CCN(Cc2ccc(NC(=O)Cc3ccc(Oc4cc(NC(=O)C5CC5)ncn4)cc3)cc2C(F)(F)F)CC1
Cardiac muscle cell [9]
  Activity: Active
Cardiac Muscle Cell [10]
  Activity: Active
Cardiac Muscle Cell [11]
  Activity: Active
Cardiac Muscle Cell [12]
  Activity: Active
Cardiac muscle cell [7]
  Activity: Active
Cardiac Muscle Cell [13]
  Activity: Active
Cardiac Muscle Cell [14]
  Activity: Dde
Cardiac Muscle Cell [15]
  Activity: Active
[16]
  Activity: Non-Toxic
Cardiac muscle cell [17]
  Activity: Non-Toxic

## Cc1c[nH]c(-c2cnc(NCCNc3ccc(C#N)cn3)nc2-c2ccc(Cl)cc2Cl)n1 [LADUVIGLUSIB]
[16]
  Activity: Non-Toxic
Cardiac muscle cell [17]
  Activity: Non-Toxic

## CN1CCN(Cc2ccc(NC(=O)Nc3ccc(Oc4cc(NC(=O)C5CC5)ncn4)cc3)cc2C(F)(F)F)CC1
Cardiac muscle cell [9]
  Activity: Active
Cardiac Muscle Cell [10]
  Activity: Active
Cardiac Muscle Cell [11]
  Activity: Active
Cardiac Muscle Cell [12]
  Activity: Active
Cardiac Muscle Cell [13]
  Activity: Active
Cardiac Muscle Cell [14]
  Activity: Dde
Cardiac Muscle Cell [15]
  Activity: Active

## O=C(OCCN1CCOCC1)c1ccc2c(c1)C(=O)c1ccc(Nc3ccc(F)cc3F)cc1CC2
Cardiac muscle cell [3]
  Activity: Active
Cardiac muscle cell [4]
  Activity: Active

## COc1nccc(-c2c(-c3ccc(F)cc3)ncn2[C@H]2CC[C@H](O)CC2)n1
Cardiac Muscle Cell [18]
  Activity: Dde
Cardiac muscle cell [19]
  Activity: Active
Cardiac Muscle Cell [20]
  Activity: Active
Cardiac muscle cell [21]
  Activity: Active
Cardiac Muscle Cell [22]
  Activity: Active
Cardiac muscle cell [23]
  Activity: Active
Cardiac muscle cell [24]
  Activity: Dde
Cardiac Muscle Cell [25]
  Activity: Active
[16]
  Activity: Non-Toxic
Cardiac muscle cell [26]
  Activity: Active
Cardiac Muscle Cell [27]
  Activity: Active
Cardiac muscle cell [17]
  Activity: Non-Toxic
